In assay [1] the target is T1, recombinant human B1 receptors (Homo sapiens, UniProt P46663).
T1 construct: host or cells: CHO (CHO-B1)
T1 sequence (P46663 1-353): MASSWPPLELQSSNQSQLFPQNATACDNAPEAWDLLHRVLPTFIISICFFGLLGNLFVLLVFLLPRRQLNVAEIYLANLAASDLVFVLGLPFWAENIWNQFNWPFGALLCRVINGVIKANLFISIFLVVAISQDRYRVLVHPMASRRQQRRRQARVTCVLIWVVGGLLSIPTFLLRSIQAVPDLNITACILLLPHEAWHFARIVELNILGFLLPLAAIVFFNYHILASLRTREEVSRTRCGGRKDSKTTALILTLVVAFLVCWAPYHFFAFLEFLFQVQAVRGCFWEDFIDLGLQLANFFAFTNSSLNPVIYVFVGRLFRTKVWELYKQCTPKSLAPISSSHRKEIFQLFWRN
Briefly: Functional assay: antagonist potency by cytosolic calcium measurement (plate reader fluorimeter) in CHO-B1 cells, agonist LysDABK. Format: cell-based. To be noted: CHO-B1 cells, inhibition of LysDABK (EC80)-evoked [Ca2+]i elevation; read-out: B1 func. In a few lines:
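IC50 is the concentration giving half-maximal inhibition of the LysDABK (EC80) calcium response, fitted from at least three experiments. CHO cells stably expressing human B1 were dye-loaded, exposed to compound for 20-25 min, then read by fluo-4 fluorescence (ΔF/F) at 37 °C.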

Assay [2] concerns the target T2, human recombinant bradykinin B1 receptor (Homo sapiens, UniProt P46663).
T2 construct: host or cells: CHO cells, clone hB1-A5
T2 sequence (P46663 1-353): T1 sequence (P46663 1-353)
Briefly: Human recombinant bradykinin B1 receptor competitive radioligand binding. Conditions: hB1 expressed in CHO cells, [3H]-[Des-Arg10] Kallidin radioligand; read-out: B1 binding. In a few lines: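 Membranes from CHO cells expressing hB1 (20 μg protein/tube) incubated 15 min at 25° C. with [3,4-prolyl-3,4-^3H(N)]-[Des-Arg^10] Kallidin; nonspecific binding defined with 10 μM Lys-des-Arg^9-Bradykinin. Bound label collected by filtration and counted. IC50 from ≥7-point curves in triplicate; Ki by Cheng-Prusoff.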

Structures are written as SMILES.

With `Cc1noc(-c2c(Cl)c3ccccc3n2-c2ccc(CNC(=O)C3(NC(=O)c4cncc(C(F)(F)F)c4)CC3)cc2)n1` [Example 115, N-(1-{4-[3-Chloro-2-(3-methyl-[1,2,4]oxadiazol-5-yl)-indol-1-yl]-benzylcarbamoyl}-cyclopropyl)-5-trifluoromethyl-nicotinamide], the IC50 in assay [1] is less than 20 nM. Further, the Ki in assay [2] was less than 20 nM.

Consider `Cc1nc(-c2c(Cl)c3ccccc3n2-c2ccc(CNC(=O)C3(NC(=O)c4ccnc(F)c4)CC3)c(F)c2)no1` [Example 109, N-(1-{4-[3-Chloro-2-(5-methyl-[1,2,4]oxadiazol-3-yl)-indol-1-yl]-2-fluoro-benzylcarbamoyl}-cyclopropyl)-2-fluoro-isonicotinamide], for which the IC50 in assay [1] was less than 20 nM. Moreover, the Ki in assay [2] was less than 20 nM.

As to `COc1cc(C(=O)NC2(C(=O)N[C@H](C)c3ccc(-n4c(-c5noc(C)n5)c(Cl)c5ccccc54)cc3F)CC2)on1` [Example 191, 3-Methoxy-isoxazole-5-carboxylic acid [1-((R)-1-{4-[3-chloro-2-(5-methyl-[1,2,4]oxadiazol-3-yl)-indol-1-yl]-2-fluoro-phenyl}-ethylcarbamoyl)-cyclopropyl]amide], the IC50 in assay [1] is less than 20 nM. Besides, in assay [2], the Ki is less than 20 nM.

Regarding `Cc1noc(-c2cc3ccccc3n2-c2ccc(CNC(=O)C3(NC(=O)c4cncc(C(F)(F)F)c4)CC3)cc2)n1` [Example 83, N-(1-{4-[2-(3-Methyl-[1,2,4]oxadiazol-5-yl)-indol-1-yl]-benzylcarbamoyl}-cyclopropyl)-5-trifluoromethyl-nicotinamide], the IC50 in assay [1] is less than 20 nM. In assay [2], the Ki is less than 20 nM.

Turning to `Cn1nnc(-c2c(Cl)c3cc(Cl)ccc3n2-c2ccc(CNC(=O)C3(NC(=O)C(F)(F)F)CC3)cc2)n1` [Example 17, 1-(2,2,2-Trifluoro-acetylamino)-cyclopropanecarboxylic acid 4-[3,5-dichloro-2-(2-methyl-2H-tetrazol-5-yl)-indol-1-yl]-benzylamide], the IC50 in assay [1] was less than 20 nM. In addition, the Ki in assay [2] was less than 20 nM.

Take `Cc1nc(-c2c(Cl)c3ccccc3n2-c2ccc(CNC(=O)C3(NC(=O)c4ccc(C(F)(F)F)c(F)c4)CC3)cc2)no1` [Example 93, N-(1-{4-[3-Chloro-2-(5-methyl-[1,2,4]oxadiazol-3-yl)-indol-1-yl]-benzylcarbamoyl}-cyclopropyl)-3-fluoro-4-trifluoromethyl-benzamide]: in assay [1], the IC50 lay in the range of 20 to 100 nM. The Ki in assay [2] was in the range of 20 to 100 nM.

In the case of `COc1cc(C(=O)NC2(C(=O)NCc3ccc(-n4c(C(N)=O)c(Cl)c5ccccc54)cc3)CC2)on1` [Example 188, 3-Chloro-1-{4-[({1-[(3-methoxy-isoxazole-5-carbonyl)-amino]-cyclopropane-carbonyl}-amino)-methyl]-phenyl}-1H-indole-2-carboxylic acid amide], in assay [1], the IC50 is less than 20 nM. For the same molecule, the Ki in assay [2] fell in the range of 20 to 100 nM.

`Cc1nc(-c2c(Cl)c3cc(F)ccc3n2-c2ccc(CNC(=O)C3(NC(=O)c4cc(C5CC5)on4)CC3)cc2)no1` [Example 90, 5-Cyclopropyl-isoxazole-3-carboxylic acid (1-{4-[3-chloro-5-fluoro-2-(5-methyl-[1,2,4]oxadiazol-3-yl)-indol-1-yl]-benzylcarbamoyl}-cyclopropyl)-amide]: the IC50 in assay [1] is less than 20 nM. Further, the Ki in assay [2] was less than 20 nM.

Regarding `Cc1nc(-c2c(Cl)c3ccccc3n2-c2ccc(CNC(=O)C3(NC(=O)c4cn[nH]c4)CC3)cc2)no1` [Example 141, 1H-Pyrazole-4-carboxylic acid (1-{4-[3-chloro-2-(5-methyl-[1,2,4]oxadiazol-3-yl)-indol-1-yl]-benzylcarbamoyl}-cyclopropyl)-amide], the IC50 in assay [1] is less than 20 nM. In addition, the Ki in assay [2] was less than 20 nM.

Turning to `COc1ccc2c(c1)cc(-c1nc(C)no1)n2-c1ccc(CNC(=O)C2(NC(=O)CC(F)(F)F)CC2)cc1` [Example 78, 1-(3,3,3-Trifluoro-propionylamino)-cyclopropanecarboxylic acid 4-[5-methoxy-2-(3-methyl-[1,2,4]oxadiazol-5-yl)-indol-1-yl]-benzylamide], the IC50 in assay [1] is less than 20 nM. The Ki in assay [2] was less than 20 nM.

For the molecule `Cc1nc(-c2c(Cl)c3ccccc3n2-c2ccc(CNC(=O)C3(NC(=O)C=Cc4ccco4)CC3)cc2)no1` [Example 171, 1-(3-Furan-2-yl-acryloylamino)-cyclopropanecarboxylic acid 4-[3-chloro-2-(5-methyl-[1,2,4]oxadiazol-3-yl)-indol-1-yl]-benzylamide], the IC50 in assay [1] was in the range of 20 to 100 nM. Also, the Ki in assay [2] is less than 20 nM.

For `Cc1nc(-c2c(F)c3cc(F)ccc3n2-c2ccc(CNC(=O)C3(NC(=O)C(F)(F)F)CC3)cc2)no1` [Example 199, 1-(2,2,2-Trifluoro-acetylamino)-cyclopropanecarboxylic acid 4-[3,5-difluoro-2-(5-methyl-[1,2,4]oxadiazol-3-yl)-indol-1-yl]-benzylamide], the IC50 in assay [1] was less than 20 nM. The Ki in assay [2] was less than 20 nM.
